{"source": "patent US20130115618A1", "about": "“PHOSPHOLIPID PROFILING AND CANCER” (KATHOLIEKE UNIVERSITEIT LEUVEN, priority 2010, published 2013)", "format_in_all_cases": "cell-based", "key": {"LNCaP cells [1]": {"tested_on": "LNCaP cells", "test": "Cell death assay (trypan blue dye exclusion)", "description": "At the indicated time after exposure to soraphen and/or other compounds, the adherent and floating cells were collected by trypsinization and centrifugation and both cell populations were combined."}, "LNCaP cells [2]": {"tested_on": "LNCaP cells", "test": "Lipid peroxidation product assay", "procedure": "Equal amounts of cells were scraped in ice-cold PBS, kept on ice for 15 min, and then sonicated (10 bursts). After centrifugation at 3,000 g for 10 min, the supernatants were analyzed using a lipid peroxidation assay kit (Oxford Biomedical Research, Oxford, Mich.) that quantifies the amount of malondialdehydes and 4-hydroxyalkenals, which are generated from fatty acid peroxide decomposition."}, "[3]": {"tested_on": "CD36-positive cells (COS-7 transfected with pCD36)", "test": "CD36-binding assay", "procedure": "LNCaP cells were cultured in the presence or absence of soraphen and/or palmitic acid for 72 hr. The cells were exposed to H2O2 (300 μM) for 30 min. Cells were trypsinized and labeled with Cell Tracker Dye Orange CMRA (C34551). The labeled LNCaP cells (1.5×10^5) were subsequently layered over a monolayer of COS-7 cells, which were cultured on glass coverslips and transfected with a CD36-encoding construct (pCD36) or the corresponding empty vector (pEF-BOS) (both kindly provided by R. Thorne, University of Newcastle, Australia). Cells were co-cultured in 1 ml of RPMI medium for 1 hr at 37° C. After extensive washing, the cultures were fixed and imaged. The fluorescence signal of the CellTracker Dye was measured using Adobe Photoshop software (San Jose, Calif.)."}, "LNCaP cells [4]": {"tested_on": "LNCaP cells", "test": "Doxorubicin accumulation (fluorescence microscopy and fluorimetry)", "conditions": "soraphen 100 nM 72 hr, doxorubicin 10 μM 30 min", "procedure": "To visualize the intracellular doxorubicin accumulation, doxorubicin was added at a final concentration of 10 μM. After 30 min, the cells were analyzed using a fluorescence microscope (515 nm longpass emission filter) and the LIDA software (Leica Microsystems GmbH).\nTo measure doxorubicin accumulation fluorimetrically, cells were exposed to 10 μM of doxorubicin for 30 min, washed in PBS, lysed in 0.3 M HCl in 50% ethanol (v:v), and centrifuged at 700 g for 5 min. The fluorescence of doxorubicin was measured at an excitation wavelength of 490 nm and an emission wavelength of 580 nm. Where indicated, media were supplemented with palmitic acid."}, "[5]": {"tested_on": "fatty acid synthesis in LNCaP cells", "test": "2-14C-acetate incorporation assay and TLC analysis", "conditions": "soraphen 24 hours, 2-14C-acetate last 4 hours", "procedure": "LNCaP cells were treated with soraphen or vehicle (ethanol) for 24 hours. The last 4 hours, 2-^14C-labeled acetate (57 mCi/mmol; 2 μCi/dish; Amersham International, Aylesbury, UK) was added to the culture medium. Lipids were extracted according to a modified Bligh-Dyer method as previously described (De Schrijver et al., 2003). To analyze the incorporation of 2-^14C-acetate into different lipid classes, TLC analysis was performed and the lipids were exposed to a PhosphorImager screen for quantification (Molecular Dynamics, Sunnyvale, Calif.), as previously described (De Schrijver et al., 2003)."}, "LNCaP cells [6]": {"tested_on": "LNCaP cells", "test": "Analysis of intact phospholipid species by ESI-MS/MS", "conditions": "soraphen 100 nM, 72 hr, versus vehicle", "procedure": "To prepare lipid extracts for ESI-MS/MS analysis, the tissue or cells were homogenized in 1.6 ml of 0.1 N HCl:CH3OH 1:1 (v/v). CHCl3 (0.8 ml) and 200 μg/ml of the anti-oxidant 2,6-di-tert-butyl-4-methylphenol (Sigma) were added (Milne et al., 2006). After addition of the lipid standards, the organic fractions were collected by centrifugation at 200 g for 5 min. Samples were evaporated and reconstituted in CH3OH:CHCl3:NH4OH (90:10:1.25, v/v/v) and the lipids were analyzed by electrospray ionization tandem mass spectrometry (ESI-MS/MS) on a hybrid quadrupole linear ion trap mass spectrometer (4000 QTRAP system; Applied Biosystems, Foster City, Calif.) equipped with a robotic nanoflow/ion source (Advion Biosciences). The system was operated in the MRM mode for quantification of individual species. Data were expressed as fold change relative to the control samples (untreated cells or matched normal tissue) and were presented as heatmaps using the Heatmap Builder software (Clifton Watt, Stanford University, USA)."}, "LNCaP cells [7]": {"tested_on": "LNCaP cells", "test": "Doxorubicin flip-flop rate (NBD-PE quenching)", "conditions": "soraphen 100 nM 72 hr, doxorubicin 10 μM, similar with verapamil 100 μM", "procedure": "To measure the flip-flop rate of doxorubicin, cells were treated with soraphen or vehicle for 72 hr. During the last 24 hr of treatment, 10 μM of NBD-phosphatidylethanolamine (NBD-PE; Invitrogen) was added. Verapamil was added at a concentration of 100 μM 1 hr prior to harvesting the cells by trypsinization. The doxorubicin flip-flop rate across the plasma membrane was measured as the reduction in fluorescence of NBD due to quenching of NBD-PE by doxorubicin (Regev et al., 2005) (See Supplemental Methods for details)."}}}
{"smiles": "COc1cccc2c1C(=O)c1c(O)c3c(c(O)c1C2=O)C[C@@](O)(C(=O)CO)C[C@@H]3O[C@H]1C[C@H](N)[C@H](O)[C@H](C)O1", "note": "[doxorubicin]", "values": [{"measurement": "cell death", "setting": "LNCaP cells [1]; standard culture, doxorubicin 4 μM last 24 hr", "value": 8, "unit": "%"}]}
{"smiles": "CCCCCCCCCCCCCCCC(=O)O", "note": "[palmitic acid]", "values": [{"measurement": "effect on soraphen/H2O2-induced increase in lipid peroxidation products", "setting": "LNCaP cells [2]; soraphen 100 nM 72 hr, 200 μM H2O2 last 2 hr, exogenous palmitic acid 75 μM", "value": "largely reversed these changes"}, {"measurement": "effect on soraphen-induced increase of CD36-bound LNCaP cells", "setting": "[3]; soraphen 100 nM 72 hr, 300 μM H2O2 30 min, exogenous palmitic acid 75 μM", "value": "counteracted these effects"}, {"measurement": "effect on soraphen-induced doxorubicin accumulation", "setting": "LNCaP cells [4]; palmitic acid 75 μM", "value": "counteracted the effects of soraphen"}, {"measurement": "effect on soraphen-sensitized H2O2-induced cell death (rescue)", "setting": "LNCaP cells [1]; soraphen 100 nM 72 hr, 300 μM H2O2 last 24 hr, fatty acid supplement 75 μM", "value": "counteracted"}, {"measurement": "effect on soraphen/doxorubicin-induced cell death", "setting": "LNCaP cells [1]; soraphen 100 nM, doxorubicin 4 μM, palmitic acid 75 μM", "value": "largely rescued the cells from death"}]}
{"smiles": "CO[C@H]1CCCC[C@@H](c2ccccc2)OC(=O)[C@@H](C)[C@@]2(O)O[C@H]([C@@H](C)[C@H](O)[C@H]2OC)[C@@H](C)/C=C/[C@H]1OC", "note": "[soraphen, Soraphen A]", "values": [{"measurement": "inhibition of fatty acid synthesis / de novo lipogenesis by 2-14C-acetate incorporation", "setting": "[5]", "value": "Inhibition of fatty acid synthesis, and as such de novo lipogenesis was confirmed"}, {"measurement": "decrease of PC species with one degree of unsaturation", "setting": "LNCaP cells [6]", "value": "up to four-fold"}, {"measurement": "effect on PC species with two unsaturations", "setting": "LNCaP cells [6]", "value": "ambiguous or minor net effect"}, {"measurement": "increase of PC species with more unsaturations (>three)", "setting": "LNCaP cells [6]", "value": "up to eight-fold"}, {"measurement": "levels of lipid peroxidation products", "setting": "LNCaP cells [2]; soraphen 100 nM, 72 hr", "value": "significantly increased"}, {"measurement": "number of CD36-bound LNCaP cells", "setting": "[3]; soraphen 100 nM 72 hr followed by 300 μM H2O2 for 30 min", "value": "substantially increased"}, {"measurement": "increase in the flip-flop rate of doxorubicin", "setting": "LNCaP cells [7]", "value": "six-fold"}, {"measurement": "intracellular accumulation of doxorubicin", "setting": "LNCaP cells [4]", "value": "significant increase"}, {"measurement": "cell death in response to H2O2", "setting": "LNCaP cells [1]; soraphen 100 nM 72 hr, 300 μM H2O2 last 24 hr", "value": "markedly increased"}, {"measurement": "cell death", "setting": "LNCaP cells [1]; soraphen alone 100 nM 72 hr", "value": "up to 20%"}]}
